Source: patent publication US20170224840A1, “Drug Delivery System Comprising A Cancer Stem Cell-Targeted Carbon Nanotube, Preparation and Use Thereof” (Institute of Pharmacology and Toxicology Academy of …, priority 2014, published 2017)

Experiments:
CD44− cells = assay: WST-8 proliferation inhibition, CD44- cells; format: cell-based, human; conditions: 48 h, series of concentrations
Description: (§1) CD44+ cells and CD44-cells sorted from human gastric cancer cell line AGS were seeded in an amount of 5000/well to 96-well plates, and incubated for 24 h at 37° C. in a 5% CO2 incubator. Free salinomycin in a series of concentrations, SAL-SWNTs-CHI, SAL-SWNTs-CHI-HA or blank SWNTs-CHI-HA were added to, and same amount of drug-free culture medium was used as blank control. After the addition, the 96-well plates were incubated for 48 h at 37° C. in a 5% CO2 incubator. After the completion of the cell culture, the plates were taken out and the culture media in the wells were removed. After washing with sterile PBS, 100 μL of PBS and 10 μL of WST-8 reagent were added to each well, and incubation was continued for 2 hours. Optical density (OD) was measured at the wavelength of 450 nm using a microplate reader. The toxicities of various salinomycin preparations on gastric cancer stem cells were evaluated by using the percentages of surviving cells (Survival rate, %) after the addition and culture. The percentages of surviving cells were calculated according to the following formula:
(§2) Inhibition rate=1−Cell survival rate.

breast cancer stem cells = conditions: cited from earlier work
CD44+ cells [1] = assay: WST-8 proliferation inhibition, CD44+ cells; format: cell-based, human; conditions: 48 h, series of concentrations
Description: as §1, §2

AGS cells = assay: Effect on proportion of CD44+ cells in AGS cells (flow cytometry); format: cell-based, human; conditions: drug concentration 1.0 μM, 48 h; blank control 5.2±0.1%
Description: In order to measure the effects of various salinomycin dosage forms on the expression of CD44 in AGS cells, AGS cells were seeded in 6-well plates at 3×10^5 cells/well. After incubation for 24 h, AGS cells were incubated with free mitomycin, free salinomycin, SAL-SWNTs-CHI or SAL-SWNTs-CHI-HA (drug concentration was 1.0 μM) separately at 37° C. for 48 h. The blank medium was used as control. After incubation, the cells were washed three times with cold PBS, digested with 0.25% trypsin, and then pipetted with PBS to make cell suspensions. The expression rates of CD44 in AGS cells were detected by flow cytometry.

[2] = tested on: gastric cancer stem cell spheres; assay: Inhibition of growth of gastric cancer stem cell spheres; format: cell-based, human; conditions: salinomycin 5 μM, 6th day after administration; PBS 433.3±6.0%
Description: (§3) CD44+ cell suspension was inoculated to a low-absorption 24-well plate in an amount of 5×10^4/well, and subjected to suspension culture with DMEM/F12 medium (1% N2, 2% B27, 10 ng/mL bFGF, 20 ng/mL EGF), incubated in a 5% CO2 incubator at 37° C. for 6 days. Medium was replaced every three days. The stem cell spheres with diameter of more than 200 μm were transferred to a 96-well culture plate, one sphere per well.
To the wells of 96-well culture plate, PBS, free salinomycin, SAL-SWNTs-CHI or SAL-SWNTs-CHI-HA were added, respectively, and the concentration of salinomycin in the above preparations was 5 μM. After addition, the 96-well plate was placed in a 37° C., 5% CO2 incubator and incubated continuously. The growth of tumor spheres under these conditions was observed. […] The formula for calculating the inhibition rate of tumor sphere growth was as follows: […], in which dmax was maximum diameter, dmin was minimum diameter; tumor sphere volume change rate %=(Vdayi/Vday0) 100%, in which Vdayi represents the volume of stem cell spheres on the i^th day after administration, and Vday0 represents the volume of stem cell spheres before administration.

CD44+ cells [3] = assay: Apoptosis by Annexin V-FITC / propidium iodide flow cytometry; format: cell-based, human; conditions: drug concentration 5.0 μM, 12 h
Description: Flow cytometry was used to detect the apoptosis of gastric cancer stein cells via double-staining method with Annexin V-FITC and propidium iodide (PI), so as to observe the activities of various salinomycin dosage forms in induction of apoptosis of gastric cancer stem cells. CD44+ cells were seeded in a 6-well cell culture plate in an amount of 5×10^5 cells/well (2 ml), and incubated at 37° C. in a 5% CO2 cell incubator for 24 h; and separately added with PBS (pH 7.4, 0.1 M), blank SWNTs-CHI-HA, free salinomycin, SAL-SWNTs-CHI or SAL-SWNTs-CHI-HA (drug concentration: 5.0 μM), and continuously incubated at 37° C. for 12 h in a 5% CO2 cell incubator. The 6-well cell culture plate was removed from the cell culture incubator, the supernatant was carefully sucked up; the cells were washed three times with cold pH7.4 PBS, collected and suspended in 200 μl of binding buffer. 5 μl of Annexin V-FITC and 5 μl of propidium iodide were added in the dark, placed in the dark at room temperature for 15 min, and the apoptotic rate of the cells was detected by flow cytometry.

[4] = cited from earlier work
[5] = tested on: gastric cancer stem cell spheres; assay: Penetration of stem cell spheres by laser confocal microscopy; format: cell-based, human; conditions: FITC 5 uM, 12 hours
Description: as §3
Free FITC, FITC-SWNTs-CHI or FITC-SWNTs-CHI-HA were separately added to the wells of a 96-well plate containing stem cell spheres, and the concentration of FITC in the above preparations was 5 uM. After the addition, the 96-well plate was placed in a 37° C., 5% CO2 incubator to continue the culture for 12 hours; then the stem cell spheres were transferred to a glass-bottom dish, 5 stem cell spheres in each group, washed three times with fresh culture medium, and then 100 μl of fresh culture medium was added in each dish; for each stem cell sphere, it was light-cut into layers from the top to the center of the sphere at 10 μm intervals, and FITC fluorescence intensities of different layers were studied.

## CC[C@@H](C(=O)[C@@H](C)[C@@H](O)[C@H](C)[C@@H]1O[C@@H]([C@@H](CC)C(=O)O)CC[C@@H]1C)[C@H]1O[C@]2(C=C[C@@H](O)[C@]3(CC[C@@](C)([C@H]4CC[C@](O)(CC)[C@H](C)O4)O3)O2)[C@H](C)C[C@@H]1C [Salinomycin]
CD44− cells
  Inhibitory effect on proliferation of CD44− cells: strongest inhibitory effect
Breast cancer stem cells
  Effect of killing breast cancer stem cells relative to paclitaxel: more than 100 times
CD44+ cells [1]
  Inhibitory effect on proliferation of CD44+ cells: significant inhibitory effects
AGS cells
  Proportion of CD44+ cells after treatment: 1.75±0.21%
[2]
  Volume change rate of cell spheres: 179.5±5.8%
CD44+ cells [3]
  Apoptotic rate of gastric cancer stem cells: 34.8%
  Necrosis rate of gastric cancer stem cells: 4.3%
[4]
  Water solubility: poor

## CO[C@@]12[C@H](COC(N)=O)C3=C(C(=O)C(C)=C(N)C3=O)N1C[C@@H]1N[C@@H]12 [mitomycin C]
AGS cells
  Proportion of CD44+ cells after treatment: 74.9±1.0%

## fluorescein isothiocyanate [free FITC]
[5]
  FITC fluorescence in stem cell spheres (penetration): weakest fluorescence intensity
